Test results taken from PMC3426542, “A Novel Virulence Strategy for Pseudomonas aeruginosa Mediated by an Autotransporter with Arginine-Specific Aminopeptidase Activity” (PLoS Pathogens, 2012).

Target: T1, SGAP (Streptomyces griseus, UniProt P80561)
T1 construct: gene SGR_5809; commercial preparation (Sigma)
Test: 4-nitroanilide release at […] nm, commercial enzyme
Format: biochemical
Conditions: 1 mM substrate, MMP, 37 °C

T1 sequence (P80561 46-329): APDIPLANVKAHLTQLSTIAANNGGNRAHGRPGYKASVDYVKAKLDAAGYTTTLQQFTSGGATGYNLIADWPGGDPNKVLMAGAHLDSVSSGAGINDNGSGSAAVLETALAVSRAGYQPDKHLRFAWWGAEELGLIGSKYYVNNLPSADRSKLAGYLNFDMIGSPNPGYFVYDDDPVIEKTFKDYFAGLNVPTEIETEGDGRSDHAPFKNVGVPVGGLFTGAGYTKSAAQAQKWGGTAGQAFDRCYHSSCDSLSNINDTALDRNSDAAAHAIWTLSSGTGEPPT

Compound | 4-nitroanilide release at 405 nm, commercial enzyme
CC(C)C[C@H](N)C(=O)Nc1ccc([N+](=O)[O-])cc1 [leucine-p-nitroanilide] | SGAP clearly released maximal levels of 4-nitroanilide from leucine-p-nitroanilide and methionine-p-nitroanilide
CSCC[C@H](N)C(=O)Nc1ccc([N+](=O)[O-])cc1 [methionine-p-nitroanilide] | SGAP clearly released maximal levels of 4-nitroanilide from leucine-p-nitroanilide and methionine-p-nitroanilide
